Test results taken from patent publication US20240067660A1, “MACROCYCLIC SPIROCYCLE DERIVATIVES AS MCL-1 INHIBITORS” (Janssen Pharmaceutica NV, priority 2019, published 2024).
Where two headings read alike, the source gives them in different places.

Assays:
MOLP8 cells = experiment: MOLP8 CellEvent Caspase-3/7 Green IncuCyte live-cell apoptosis assay; format: cell-based, human
Description: (§1) MCL-1 is a regulator of apoptosis and is highly over-expressed in tumor cells that escape cell death. The assay evaluates the cellular potency of small-molecule compounds targeting regulators of the apoptosis pathway, primarily MCL-1, Bfl-1, Bcl-2, and other proteins of the Bcl-2 family. Protein-protein inhibitors disrupting the interaction of anti-apoptotic regulators with BH3-domain proteins initiate apoptosis.
Activation of the apoptotic pathway was measured using the CellEvent™ Caspase-3/7 Green ReadyProbes™ Reagent (Thermo Fisher C10423, C10723). This assay produces a green fluorescent stain in cells that enter the apoptosis pathway. CellEvent® Caspase-3/7 Green reagent is a four amino acid peptide (DEVD) conjugated to a nucleic acid-binding dye that is non-fluorescent when not bound to DNA. The CellEvent® Caspase-3/7 Green reagent is intrinsically non-fluorescent, as the DEVD peptide inhibits binding of the dye to DNA. Upon activation of caspase-3/7 in apoptotic cells, the DEVD peptide is cleaved and the free dye can bind DNA, generating a bright green fluorescence. The activation of Caspase-3 and Caspase-7 is downstream of inhibition of MCL-1 or other apoptosis inhibiting proteins in cell lines that are dependent on them.
The live-cell readout on the IncuCyte permits tracking over time of the Caspase activation. […] The IncuCyte readout also allows one to normalize for cell number, as the suspension cells are hard to distribute evenly.
Signals were measured every 2 h for a duration of 22 h. The ratio of the Caspase mask to the Confluence mask, per image, as raw data, was calculated and the kinetic trace for every well was exported to Genedata Screener for analysis.
In Genedata Screener values for 6 h, 12 h, and 22 h from the kinetic traces were extracted. The values were normalized against negative controls (untreated cells). A standard dose-response analysis was performed on the normalized data.
The following data was reported at each of the following three aforementioned time points: (a) The dose-response curve, (b) The qAC50 and qAC50 Mode, and (c) Max Activity.
Cells were maintained in culture medium containing 10% Heat Inactivated (HI) FBS, 2 mM L-Glutamine and 50 μg/mL Gentamycin phenol red free RPMI-1640. Cells were split at 0.4 million/mL twice a week.
On Day 1, plates containing individual wells with test compounds at 10 mM concentration, 150 nL per well. The final concentrations range from […] compound (and no compound control) and compounds were thawed at room temperature for 1 hour. 25 μl of prewarmed medium was added into each well by multidrop (column 1, 3-22, 24), followed by addition of DMSO control (0.6% DMSO) in column 2. The plate was sealed using Breathe-Easy® sealing membrane and shaken for 30 min at room temperature to dissolve the test compound(s) in medium. The plate was then kept in the incubator for 1 hour at 37° C., 5% CO2.
MOLP8 cells in medium at […] (20000/50 μl final in assay) were prepared with CellEvent™ Caspase-3/7 Green Detection Reagent at 4 μM (2 μM final in assay). Once prepared, the cells were added to the test compound plate in an amount of 20000 and the plate was immediately placed in the IncuCyte and imaging started using following settings: 10× objective, 2 s exposure time in green channel, interval of 2 h, acquisition stopped after 22 h.
For analysis in IncuCyte, a Basic Analysis protocol was defined to calculate the “confluence” and “caspase” areas from the “Phase” and “green” images, respectively, as follows: (a) Confluence: Segmentation Adjustment 1, Hole Fill 0, Adjust Size −2, No filters (b) Caspase: Top-Hat segmentation, Radius 10, Threshold 0.3 GCU, Edge Split On with sensitivity 0, Hole Fill 0, Adjust Size 1, and filter on a minimum Area of 20 μm^2. The analyzer is trained on a sufficient number of positive and negative control wells, as well as compound treated wells, verifying that the “confluence” layer detects both live and dead (condensed) cells. […]

[1] = tested on: MOLP-8 human multiple myeloma cell line; experiment: Caspase-Glo 3/7 assay in MOLP-8 cells; format: cell-based; conditions: Homo sapiens, MOLP-8, 2 h, Caspase-Glo 3/7, 2 hours incubation; averaged over all runs on all batches; read-out: MOLP8 AC50
From the text: as §1
The Caspase-Glo® 3/7 Assay is a luminescent assay that measures caspase-3 and -7 activities in purified enzyme preparations or cultures of adherent or suspension cells. The assay provides a proluminescent caspase-3/7 substrate, which contains the tetrapeptide sequence DEVD. This substrate is cleaved to release aminoluciferin, a substrate of luciferase used in the production of light. Addition of the single Caspase-Glo® 3/7 Reagent in an “add-mix-measure” format results in cell lysis, followed by caspase cleavage of the substrate and generation of a “glow-type” luminescent signal.
This assay uses the MOLP-8 human multiple myeloma cell line, which is sensitive to MCL-1 inhibition.
Cell cultures were maintained between 0.2 and 2.0×10^6 cells/mL. The cells were harvested by collection in 50 mL conical tubes. The cells were then pelleted at 500 g for 5 mins before removing supernatant and resuspension in fresh pre-warmed culture medium. The cells were counted and diluted as needed.
The assay reagent was prepared by transferring the buffer solution to the substrate vial and mixing. The solution may be stored for up to 1 week at 4° C. with negligible loss of signal.
Compounds were delivered in assay-ready plates (Proxiplate) and stored at −20° C. Assays always include 1 reference compound plate containing reference compounds. The plates were spotted with 40 nL of compounds (0.5% DMSO final in cells; serial dilution; 30 μM highest conc. 1/3 dilution, 10 doses, duplicates). The compounds were used at room temperature and 4 μL of pre-warmed media was added to all wells except column 2 and 23. The negative control was prepared by adding 1% DMSO in media. The positive control was prepared by adding the appropriate positive control compound in final concentration of 60 μM in media. The plate was prepared by adding 4 μL negative control to column 23, 4 μL positive control to column 2 and 4 μL cell suspension to all wells in the plate. The plate with cells was then incubated at 37° C. for 2 hours. The assay signal reagent is the Caspase-Glo solution described above, and 8 μL was added to all wells. The plates were then sealed and measured after 30 minutes.
The activity of a test compound was calculated as percent change in apoptosis induction as follows: […]

[2] = target: Myeloid Cell Leukemia 1(Mcl-1) (Homo sapiens (Human), UniProt Q07820); experiment: Terbium labeled Mcl-1 HTRF binding assay with Cy5-labeled BIM BH3 peptide; conditions: first table; [L]=8 nM, Kd=10 nM; before recalibration of the equipment
Description: Terbium labeled Myeloid Cell Leukemia 1(Mcl-1) homogeneous time-resolved fluorescence (HTRF) binding assay utilizing the BIM BH3 peptide (H2N-(C/Cy5Mal) WIAQELRRIGDEFN-OH) as the binding partner for Mcl-1.
This assay evaluated inhibition of the BH3 domain: Mcl-1 interaction by measuring the displacement of Cy5-labeled BIM BH3 peptide (H2N—(C/Cy5Mal) WIAQELRRIGDEFN-OH) in the HTRF assay format.
The following assay and stock buffers were prepared for use in the assay: (a) Stock buffer: 10 mM Tris-HCl, pH=7.5+150 mM NaCl, filtered, sterilized, and stored at 4° C.; and (b) 1× assay buffer, where the following ingredients were added fresh to stock buffer: 2 mM dithiothreitol (DTT), 0.0025% Tween-20, 0.1 mg/mL bovine serum albumin (BSA). The 1×Tb-Mcl-1+Cy5 Bim peptide solution was prepared by diluting the protein stock solution using the 1× assay buffer (b) to 25 pM Tb-Mcl-1 and 8 nM Cy5 Bim peptide.
Using the Acoustic ECHO, 100 nL of 100× test compound(s) were dispensed into individual wells of a white 384-well Perkin Elmer Proxiplate, for a final compound concentration of lx and final DMSO concentration of 1%. Inhibitor control and neutral control (NC, 100 nL of 100% DMSO) were stamped into columns 23 and 24 of assay plate. Into each well of the plate was then dispensed 10 μL of the 1×Tb-Mcl-1+Cy5 Bim peptide solution. The plate was centrifuged with a cover plate at 1000 rpm for 1 minute, then incubated for 60 minutes at room temperature with plates covered.
The TR-FRET signal was read on an BMG PHERAStar FSX MicroPlate Reader at room temperature using the HTRF optic module (HTRF: excitation: 337 nm, light source: laser, emission A: 665 nm, emission B: 620 nm, integration start: 60 μs, integration time: […]).
The BMG PHERAStar FSX MicroPlate Reader was used to measure fluorescence intensity at two emission wavelengths—665 nm and 620 nm—and report relative fluorescence units (RFU) for both emissions, as well as a ratio of the emissions (665 nm/620 nm)*10,000. The RFU values were normalized to percent inhibition as follows:
% inhibition=((NC−IC)−(compound−IC))/(NC−IC))*100
where IC (inhibitor control, low signal)=mean signal of 1×Tb-MCl-1+Cy5 Bim peptide+inhibitor control or 100% inhibition of Mcl-1; NC (neutral control, high signal)=mean signal 1×Tb-MCl-1+Cy5 Bim peptide with DMSO only or 0% inhibition An 11-point dose response curve was generated to determine IC50 values (using GenData) based on the following equation:
Y=Bottom+(Top−Bottom)/(1+10^((IogIC50−X)*HillSlope))
where Y=% inhibition in the presence of X inhibitor concentration; Top=100% inhibition derived from the IC (mean signal of Mcl-1+inhibitor control); Bottom=0% inhibition derived from the NC (mean signal of Mcl-1+DMSO); Hillslope=Hill coefficient; and IC50=concentration of compound with 50% inhibition in relation to top/neutral control (NC).
In this assay [L]=8 nM and Kd=10 nM

[3] = 6 h, read-out: MOLP8 Caspase 3/7 AC50 at 6 h
[4] = 12 h, read-out: MOLP8 Caspase 3/7 AC50 at 12 h
[5] = 22 h, read-out: MOLP8 Caspase 3/7 AC50 at 22 h
[6] = Homo sapiens, MOLP-8, 6 h, 6 h, read-out: MOLP8 Caspase 3/7 AC50 at 6 h
[7] = Homo sapiens, MOLP-8, 12 h, 12 h, read-out: MOLP8 Caspase 3/7 AC50 at 12 h
[8] = Homo sapiens, MOLP-8, 22 h, 22 h, read-out: MOLP8 Caspase 3/7 AC50 at 22 h

Sequence of Myeloid Cell Leukemia 1(Mcl-1) (Q07820 whole entry): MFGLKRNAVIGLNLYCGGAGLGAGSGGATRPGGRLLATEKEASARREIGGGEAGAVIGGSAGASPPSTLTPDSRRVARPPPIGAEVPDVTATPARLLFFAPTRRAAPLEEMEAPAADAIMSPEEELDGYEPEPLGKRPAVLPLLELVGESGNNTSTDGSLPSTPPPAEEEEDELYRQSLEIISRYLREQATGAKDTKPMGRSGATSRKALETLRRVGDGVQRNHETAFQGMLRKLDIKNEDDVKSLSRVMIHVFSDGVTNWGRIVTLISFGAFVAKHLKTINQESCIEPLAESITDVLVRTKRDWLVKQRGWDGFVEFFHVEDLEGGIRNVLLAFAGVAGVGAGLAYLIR

SMILES	AC50 (MOLP8 cells; [3]) [nM]	AC50 (MOLP8 cells; [4]) [nM]	AC50 (MOLP8 cells; [5]) [nM]	AC50 [1] [nM]	AC50 (MOLP8 cells; [6]) [nM]	AC50 (MOLP8 cells; [7]) [nM]	AC50 (MOLP8 cells; [8]) [nM]	Ki [2] [nM]
C[C@@H]1[C@@H](C)C/C=C/CN2CC[C@H]2CN2CC3(CCOc4cc(Cl)ccc43)COc3ccc(cc32)C(=O)NS1(=O)=O (single isomer, unassigned) [Compound 5]	6310	6600	5750	3740	–	–	–	–
C[C@@H]1[C@@H](C)C/C=C/CN2CC[C@H]2CN2CC3(CCOc4cc(Cl)ccc43)COc3ccc(cc32)C(=O)NS1(=O)=O (single isomer, unassigned) [Compound 6]	> 30000	> 30000	> 30000	–	–	–	–	–
C[C@@H]1[C@@H](C)C/C=C(/F)CN2CC[C@H]2CN2C[C@@]3(CCCc4cc(Cl)ccc43)COc3ccc(cc32)C(=O)NS1(=O)=O [Compound 1]	–	–	–	–	7760	~10500	7940	–
C[C@@H]1[C@@H](C)C/C=C(\F)CN2CC[C@H]2CN2C[C@@]3(CCCc4cc(Cl)ccc43)COc3ccc(cc32)C(=O)NS1(=O)=O [Compound 2]	–	–	–	692	~970	~1050	1200	–
C[C@@H]1[C@@H](C)C/C=C/CN2CC[C@H]2CN2C[C@@]3(CCCc4cc(Cl)ccc43)COc3ccc(cc32)C(=O)NS1(=O)=O [Compound 3]	–	–	–	–	2400	2690	3090	3.14
COCCOCCOC[C@H]1/C(F)=C/C[C@H](C)[C@@H](C)S(=O)(=O)NC(=O)c2ccc3c(c2)N(C[C@@H]2CCN21)C[C@@]1(CCCc2cc(Cl)ccc21)CO3 [Compound 14]	–	–	–	–	300	350	370	0.34
COC[C@H]1/C(F)=C/C[C@H](C)[C@@H](C)S(=O)(=O)NC(=O)c2ccc3c(c2)N(C[C@@H]2CCCN21)C[C@@]1(CCCc2cc(Cl)ccc21)CO3 [Compound 20]	–	–	–	–	810	700	610	0.91
C[C@@H]1[C@@H](C)C/C=C(\F)[C@H](COCCN2CCOCC2)N2CC[C@H]2CN2C[C@@]3(CCCc4cc(Cl)ccc43)COc3ccc(cc32)C(=O)NS1(=O)=O [Compound 30]	–	–	–	–	630	560	620	–
C[C@@H]1[C@@H](C)C/C=C(\F)[C@H](CN2CCN3CCN(C)C[C@@H]3C2)N2CC[C@H]2CN2C[C@@]3(CCCc4cc(Cl)ccc43)COc3ccc(cc32)C(=O)NS1(=O)=O [Compound 32]	–	–	–	–	1100	960	960	–
C[C@@H]1[C@@H](C)C/C=C(\F)[C@H](CN2CCOCC2)N2CC[C@H]2CN2C[C@@]3(CCCc4cc(Cl)ccc43)COc3ccc(cc32)C(=O)NS1(=O)=O [Compound 33]	–	–	–	–	330	340	560	–
COCCOCC1(COCCOC)/C(F)=C/C[C@H](C)[C@@H](C)S(=O)(=O)NC(=O)c2ccc3c(c2)N(C[C@@H]2CCN21)C[C@@]1(CCCc2cc(Cl)ccc21)CO3 [Compound 41]	–	–	–	152	–	–	–	–
